In US12668600B2 (Kumquat Biosciences Inc., priority 2023, dated 2026):

Legend:
Assay type in all cases: biochemical
KRAS G12S = target: T1, KRAS G12S (Homo sapiens, UniProt P01116, G12S); test: HTRF KRAS-SOS1 interaction assay, KRAS G12S; settings: binned ≤2 μM / >2 μM, read-out: Inhibition of KRAS G12S (IC50)
T1 construct: made in house; host or cells: E. coli, e.g. BL21 (DE3)
Method in brief: (§1)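 GST-tagged KRAS (WT or mutant) with anti-GST-Eu donor, mixed with His-hSOS1 and anti-6His-XL665 acceptor. Buffer ~5 mM HEPES pH 7.4, ~150 mM NaCl, ~1 mM DTT, 0.05% BSA, 0.0025% Igepal; incubated about 10 min or longer. HTRF 665/620 ratio, compounds in duplicate up to 10 μM, IC50 derived.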

KRAS G12D = target: T2, KRAS G12D (Homo sapiens, UniProt P01116, G12D); test: HTRF KRAS-SOS1 interaction assay, KRAS G12D; settings: binned ≤2 μM / >2 μM, read-out: Inhibition of KRAS G12D (IC50)
T2 construct: made in house; host or cells: E. coli, e.g. BL21 (DE3)
T2 sequence (P01116 1-188 isoform P01116-2 G12D): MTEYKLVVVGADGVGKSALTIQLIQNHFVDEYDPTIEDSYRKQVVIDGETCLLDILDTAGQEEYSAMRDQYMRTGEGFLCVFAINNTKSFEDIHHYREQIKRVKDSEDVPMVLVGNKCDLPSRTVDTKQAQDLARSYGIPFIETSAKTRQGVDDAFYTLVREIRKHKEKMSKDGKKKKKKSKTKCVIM
Method in brief: as §1

KRAS G12V = target: T3, KRAS G12V (Homo sapiens, UniProt P01116, G12V); test: HTRF KRAS-SOS1 interaction assay, KRAS G12V; settings: binned ≤2 μM / >2 μM, read-out: Inhibition of KRAS G12V (IC50)
T3 construct: made in house; host or cells: E. coli, e.g. BL21 (DE3)
T3 sequence (P01116 1-188 isoform P01116-2 G12V): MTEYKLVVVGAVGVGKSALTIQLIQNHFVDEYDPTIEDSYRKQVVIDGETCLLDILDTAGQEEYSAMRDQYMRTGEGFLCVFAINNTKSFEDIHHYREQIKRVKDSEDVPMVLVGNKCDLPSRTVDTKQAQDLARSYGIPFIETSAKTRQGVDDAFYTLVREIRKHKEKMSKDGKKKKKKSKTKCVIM
Method in brief: as §1

KRAS WT = target: T4, KRAS WT (Homo sapiens, UniProt P01116); test: HTRF KRAS-SOS1 interaction assay, wildtype KRAS; settings: binned ≤2 μM / >2 μM, read-out: Inhibition of KRAS WT (IC50)
T4 construct: made in house; host or cells: E. coli, e.g. BL21 (DE3)
T4 sequence (P01116 1-188 isoform P01116-2): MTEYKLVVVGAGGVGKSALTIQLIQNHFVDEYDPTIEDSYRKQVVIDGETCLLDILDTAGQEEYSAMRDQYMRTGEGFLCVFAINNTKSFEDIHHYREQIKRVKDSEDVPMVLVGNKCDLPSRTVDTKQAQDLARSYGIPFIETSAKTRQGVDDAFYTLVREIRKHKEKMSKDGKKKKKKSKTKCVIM
Method in brief: as §1

T1 sequence (P01116 1-188 isoform P01116-2 G12S): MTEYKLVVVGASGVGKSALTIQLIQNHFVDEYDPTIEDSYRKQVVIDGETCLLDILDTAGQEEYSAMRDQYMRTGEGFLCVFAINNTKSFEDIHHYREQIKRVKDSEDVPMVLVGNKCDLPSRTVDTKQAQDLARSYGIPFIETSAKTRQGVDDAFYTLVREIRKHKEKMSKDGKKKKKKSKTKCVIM

SMILES | IC50 (KRAS G12S) [nM] | IC50 (KRAS G12D) [nM] | IC50 (KRAS G12V) [nM] | IC50 (KRAS WT) [nM]
N#Cc1c(N)sc2c(F)ccc(-c3c(C(F)(F)F)c4c5c(nc(OC[C@@]67CCCN6C[C@H](F)C7)nc5c3F)N([C@H](CCC(F)(F)F)c3cc(Cl)cnc3N)CCO4)c12 [Compound 874, 2-amino-4-(4-((R)-1-(2-amino-5-chloropyridin-3-yl)-4,4,4-trifluorobutyl)-10-fluoro-2-(((2R,7aS)-2-fluorotetrahydro-1H-pyrrolizin-7a(5H)-yl)methoxy)-8-(trifluoromethyl)-5,6-dihydro-4H-[1,4]oxazepino[5,6,7-de]quinazolin-9-yl)-7-fluorobenzo[b]thiophene-3-carbonitrile] | ≤ 2000 | ≤ 2000 | ≤ 2000 | ≤ 2000
CO[C@H]1CCN(C)[C@@H]1[C@H](C)Oc1nc2c3c(c(C(F)(F)F)c(-c4ccc(F)c5sc(N)c(C#N)c45)c(F)c3n1)OCCN2[C@H](C)c1cccnc1N [Compound 665, 2-amino-4-(4-((R)-1-(2-aminopyridin-3-yl)ethyl)-10-fluoro-2-((S)-1-((2R,3S)-3-methoxy-1-methylpyrrolidin-2-yl)ethoxy)-8-(trifluoromethyl)-5,6-dihydro-4H-[1,4]oxazepino[5,6,7-de]quinazolin-9-yl)-7-fluorobenzo[b]thiophene-3-carbonitrile] | ≤ 2000 | ≤ 2000 | ≤ 2000 | ≤ 2000
C=C[C@H](c1cccnc1N)N1CCOc2c(Cl)c(-c3ccc(F)c4sc(N)c(C#N)c34)c(F)c3nc(OC[C@@]45CCCN4C[C@H](F)C5)nc1c23 [Compound 759, 2-amino-4-(4-((R)-1-(2-aminopyridin-3-yl)allyl)-8-chloro-10-fluoro-2-(((2R,7aS)-2-fluorotetrahydro-1H-pyrrolizin-7a(5H)-yl)methoxy)-5,6-dihydro-4H-[1,4]oxazepino[5,6,7-de]quinazolin-9-yl)-7-fluorobenzo[b]thiophene-3-carbonitrile] | ≤ 2000 | ≤ 2000 | ≤ 2000 | ≤ 2000
N#Cc1c(N)sc2c(F)ccc(-c3c(Cl)c4c5c(nc(OC[C@@]67CCCN6C[C@H](F)C7)nc5c3F)N(C(/C=C\F)c3cccnc3N)CCO4)c12 (single isomer, unassigned) [Compound 755] | ≤ 2000 | ≤ 2000 | ≤ 2000 | ≤ 2000
N#Cc1c(N)sc2c(F)ccc(-c3c(C(F)(F)F)c4c5c(nc(OC[C@@]67CCCN6C[C@H](F)C7)nc5c3F)N([C@H](CCC3CC3)c3cccnc3N)CCO4)c12 (single isomer, unassigned) [Compound 606] | > 2000 | > 2000 | > 2000 | > 2000
C[C@H](c1cc(Cl)cnc1N)N1CCOc2c(C(F)(F)F)c(-c3ccc(F)c4sc(N)c(C#N)c34)c(F)c3nc(OCC4(CN5CCC(F)CC5)CC4)nc1c23 [Compound 830, 2-amino-4-(4-((R)-1-(2-amino-5-chloropyridin-3-yl)ethyl)-10-fluoro-2-((1-((4-fluoropiperidin-1-yl)methyl)cyclopropyl)methoxy)-8-(trifluoromethyl)-5,6-dihydro-4H-[1,4]oxazepino[5,6,7-de]quinazolin-9-yl)-7-fluorobenzo[b]thiophene-3-carbonitrile] | ≤ 2000 | ≤ 2000 | ≤ 2000 | ≤ 2000
C=C[C@H]1COc2c(Cl)c(-c3ccc(F)c4sc(N)c(C#N)c34)c(F)c3nc(OC[C@@]45CCCN4C[C@H](F)C5)nc(c23)N1C(C)c1cccnc1N (single isomer, unassigned) [Compound 732] | ≤ 2000 | ≤ 2000 | ≤ 2000 | ≤ 2000
C[C@H](c1cccnc1N)N1CCOc2c(C(F)(F)F)c(-c3cc(F)c(F)c4sc(N)c(C#N)c34)c(F)c3nc(OC[C@@]45CCCN4C[C@H](F)C5)nc1c23 (single isomer, unassigned) [Compound 853] | ≤ 2000 | ≤ 2000 | ≤ 2000 | ≤ 2000
CCN(CC)CCC[C@H](c1cccnc1N)N1CCOc2c(C(F)(F)F)c(-c3ccc(F)c4sc(NC)c(C#N)c34)c(F)c3nc(OC[C@@]45CCCN4C[C@H](F)C5)nc1c23 (single isomer, unassigned) [Compound 832] | ≤ 2000 | ≤ 2000 | ≤ 2000 | ≤ 2000
N#Cc1c(N)sc2c(F)ccc(-c3c(C(F)(F)F)c4c5c(nc(OC[C@@]67CCCN6C[C@H](F)C7)nc5c3F)N([C@H](C/C=C/C(F)(F)F)c3cccnc3N)CCO4)c12 (single isomer, unassigned) [Compound 739] | ≤ 2000 | ≤ 2000 | ≤ 2000 | ≤ 2000
C[C@H](c1cc(F)cnc1N)N1CCOc2c(C(F)(F)F)c(-c3ccc(F)c4sc(N)c(C#N)c34)c(F)c3nc(OC[C@@]45CCCN4C[C@@]4(CC4(F)F)C5)nc1c23 [Compound 878, 2-amino-4-(4-((R)-1-(2-amino-5-fluoropyridin-3-yl)ethyl)-2-(((1S,7a′S)-2,2-difluorodihydro-1′H,3′H-spiro[cyclopropane-1,2′-pyrrolizin]-7a′(5′H)-yl)methoxy)-10-fluoro-8-(trifluoromethyl)-5,6-dihydro-4H-[1,4]oxazepino[5,6,7-de]quinazolin-9-yl)-7-fluorobenzo[b]thiophene-3-carbonitrile] | ≤ 2000 | ≤ 2000 | ≤ 2000 | ≤ 2000
CC(=O)N1CCC(C[C@H](c2cccnc2N)N2CCOc3c(C(F)(F)F)c(-c4ccc(F)c5sc(N)c(C#N)c45)c(F)c4nc(OC[C@@]56CCCN5C[C@H](F)C6)nc2c34)CC1 [Compound 658, 4-(4-((R)-2-(1-acetylpiperidin-4-yl)-1-(2-aminopyridin-3-yl)ethyl)-10-fluoro-2-(((2R,7aS)-2-fluorotetrahydro-1H-pyrrolizin-7a(5H)-yl)methoxy)-8-(trifluoromethyl)-5,6-dihydro-4H-[1,4]oxazepino[5,6,7-de]quinazolin-9-yl)-2-amino-7-fluorobenzo[b]thiophene-3-carbonitrile] | ≤ 2000 | ≤ 2000 | ≤ 2000 | ≤ 2000
C#Cc1c(F)ccc2cc(O)cc(-c3nc4c5c(nc(OC[C@@H]6CCCN6C)nc5c3F)N(C(C)c3cccnc3N)CCO4)c12 (mixture of isomers) [Compound 722, 4-(10-(1-(2-aminopyridin-3-yl)ethyl)-4-fluoro-2-(((S)-1-methylpyrrolidin-2-yl)methoxy)-9,10-dihydro-8H-7-oxa-1,3,6,10-tetraazacyclohepta[de]naphthalen-5-yl)-5-ethynyl-6-fluoronaphthalen-2-ol] | ≤ 2000 | ≤ 2000 | ≤ 2000 | ≤ 2000
C[C@H](Oc1nc2c3c(c(Cl)c(-c4ccc(F)c5sc(N)c(C#N)c45)c(F)c3n1)OCCN2[C@H](C)c1cccnc1N)[C@@H]1CCCN1C (single isomer, unassigned) [Compound 633] | ≤ 2000 | ≤ 2000 | ≤ 2000 | ≤ 2000
C[C@H](c1cccnc1N)N1CCOc2c(Cl)c(-c3cccc4sc(N)c(C#N)c34)c(F)c3nc(OC[C@@H]4CCCN4C)nc1c23 [Compound 612, 2-amino-4-(4-((R)-1-(2-aminopyridin-3-yl)ethyl)-8-chloro-10-fluoro-2-(((S)-1-methylpyrrolidin-2-yl)methoxy)-5,6-dihydro-4H-[1,4]oxazepino[5,6,7-de]quinazolin-9-yl)benzo[b]thiophene-3-carbonitrile] | ≤ 2000 | ≤ 2000 | ≤ 2000 | ≤ 2000
COc1ccc([C@@H](C)N2CCOc3c(Cl)c(-c4ccc(F)c5sc(N)c(C#N)c45)c(F)c4nc(OC[C@@]56CCCN5C[C@H](F)C6)nc2c34)c(N)n1 [Compound 706, 2-amino-4-(4-((R)-1-(2-amino-6-methoxypyridin-3-yl)ethyl)-8-chloro-10-fluoro-2-(((2R,7aS)-2-fluorotetrahydro-1H-pyrrolizin-7a(5H)-yl)methoxy)-5,6-dihydro-4H-[1,4]oxazepino[5,6,7-de]quinazolin-9-yl)-7-fluorobenzo[b]thiophene-3-carbonitrile] | ≤ 2000 | ≤ 2000 | ≤ 2000 | ≤ 2000
C[C@H](c1cccnc1N)N1CCOc2c(Cl)c(-c3ccc(F)c4sc(N)c(C#N)c34)c(F)c3nc(OC[C@@]45CCCN4CC(=C(F)F)C5)nc1c23 (atropisomer, axis not shown) [Compound 636, 2-amino-4-((R)-4-((R)-1-(2-aminopyridin-3-yl)ethyl)-8-chloro-2-(((S)-2-(difluoromethylene)tetrahydro-1H-pyrrolizin-7a (5H)-yl)methoxy)-10-fluoro-5,6-dihydro-4H-[1,4]oxazepino[5,6,7-de]quinazolin-9-yl)-7-fluorobenzo[b]thiophene-3-carbonitrile] | ≤ 2000 | ≤ 2000 | ≤ 2000 | ≤ 2000
C[C@H](c1cccnc1C(F)F)N1CCOc2c(C(F)(F)F)c(-c3ccc(F)c4sc(N)c(C#N)c34)c(F)c3nc(OC[C@@]45CCCN4C[C@H](F)C5)nc1c23 [Compound 747, 2-amino-4-(4-((R)-1-(2-(difluoromethyl)pyridin-3-yl)ethyl)-10-fluoro-2-(((2R,7aS)-2-fluorotetrahydro-1H-pyrrolizin-7a(5H)-yl)methoxy)-8-(trifluoromethyl)-5,6-dihydro-4H-[1,4]oxazepino[5,6,7-de]quinazolin-9-yl)-7-fluorobenzo[b]thiophene-3-carbonitrile] | ≤ 2000 | ≤ 2000 | ≤ 2000 | ≤ 2000
